Assay results published in US5814634A, “Alkylenediamine derivative anti-ulcer drug and antibacterial drug” (Shiseido Co. Ltd., priority 1996, dated 1998).

Key:
stress ulcer = experiment: WIS: Restraint and Water Immersion Stress-Induced Ulcer Inhibition Test; format: in vivo, rat (male Crj:SD or Slc:SD); conditions: for WIS: ulcer formation inhibitory rate: 100 mg/kg oral, rats, water immersion stress 7 hours
Description: WIS: Restraint and Water Immersion Stress-Induced Ulcer Inhibition Test
The degree of inhibition of the stress ulcer formation is tested.
Male Crj:SD or Slc:SD rats (6 to 7-week-old) were fasted overnight, but allowed free access to water. Each group has 5 to 8 of these rats. The sample compound was dissolved or suspended in an aqueous solution of 0.3% sodium carboxymethylcellulose or 0.05% Tween 80 and then was orally administered (100 mg/10 ml/kg). To a control group, the vehicle was administered. 10 minutes later, the rats were placed in a stress cage and immersed to the level of xipfoid process in a water bath (21° C.) for 7 hours. At the end of the stress, the rats were sacrificed by inhalation of ether or carbon dioxide. Then, the stomach of each was removed, inflated by injecting 10 ml of 5% formalin neutral buffer solution, and immersed in 1% formalin neutral buffer solution for 30 minutes or more to be fixed. The stomach was incised along the greater curvature and then the length of each erosion in the glandular portion was determined under dissecting microscope. The sum of the length of erosions per stomach was defined as ulcer index (UI).
The effect obtained when 100 mg/kg of the sample compound had been administered was expressed as ulcer formation inhibitory rate (%) as follows: [formula] VOL, TAO: Acid Secretion Inhibition Test In Vivo i) Meaning

Male Slc:ICR mice = test system: Male Slc:ICR mice; design: species or system mouse (male Slc:ICR); conditions: mouse, in vivo
Description: AT: Single Dose Toxicity Pretest
Male Slc:ICR mice (5-week-old) were used. Each group has 3 to 5 mice and each mouse was fasted, but allowed free access to water, for 4 to 5 hours from 9 a.m. in the test day. Then, 2,000 mg/10 ml/kg of the sample compound dissolved or suspended in an aqueous solution of 0.5% sodium carboxymethyl cellulose was orally administered thereto. To a control, only the vehicle was administered. […] The body weight was measured before and after the fasting as well as at the same time everyday. The dead animals were immediately subjected to autopsy and their organs were observed microscopically. Also, the living animals were sacrificed with ether or carbon dioxide one week after the administration and then their organs were observed microscopically.
The toxicity at the single dose of 2,000 mg/kg of the sample compound was expressed as being classified into 5 levels.
5: Mortality rate is 0%; no toxicity is found at all both in behavior and organs.
4: Mortality rate is 0%; while no toxicity is found in organs, slight toxicity is observed in behavior and body weight increase.
3: While there is a dead animal (though not all the animals are dead), no toxicity is found in organs.
2: Regardless of whether there is a dead animal or not, toxicity is found in organs.
1: All the animals are dead.

in vitro = conditions: rabbit, gastric mucosal cells
gastric mucosa = experiment: PD: Gastric Mucosal Integrity Test (gastric mucosal potential difference); format: in vivo, rat (male Crj:SD); design: key: 5: Same as the control with no recognizable damage at all.; 4: Though a slight PD-decreasing tendency suggesting a slight possibility of mucosal damage is found, there is no problem.; 3: Though a weak decrease in PD and a possibility of a weak mucosal damage is recognized, there is no substantial problem.; 2: Medium degree of decrease in PD is found and a mucosal damage is recognized.; 1: Heavy degree of decrease in PD is found and a remarkable mucosal damage is recognized; conditions: 100 mg/kg into chamber, rats, 60 minutes
Description: PD: Gastric Mucosal Integrity Test
In this case, since the sample compound has a necrotizing effect, it is inappropriate as an anti-ulcer medicament.
Therefore, the gastric mucosal potential difference (PD), which reflects the integrity of the gastric mucosa, is measured so as to confirm that the sample compound has no damaging effect on gastric mucosa, which is toxicity at gastric mucosal level.
Male Crj:SD rats (7 to 8-week-old) were fasted overnight, but allowed free access to water, and then, under urethane anesthesia (1.25 g/kg, i.p.), fixed to a cork board on its back. The abdomen of each rat was incised, and a small incision was made in the forestomach. Then, the inside of the stomach was washed with physiological saline heated at 37° C. From the forestomach, along the greater curvature thereof, the stomach was incised without damaging blood vessels. After the height of the cork board was adjusted on a jack, the stomach was mounted on ex vivo chamber. The area of the gastric mucosa exposed to the inside of this chamber was 2.5 cm^2. The inside of the chamber was perfused with physiological saline warmed at 37° C. by micro tube pump. By using an agar bridge containing 3M KCl, the potential difference between the chamber and the abdominal cavity was measured by a PD meter. Here, the rectal temperature was measured to control the body temperature during the experiment. After the PD was sufficiently stabilized, the perfusate was stopped and then 100 mg/10 ml/kg of the sample compound dissolved or suspended in an aqueous solution of 0.5% sodium carboxymethyl cellulose or 0.05% Tween 80 was administered into the chamber, while PD was recorded for 60 minutes. To a control, the vehicle was administered.
The change in PD during 60 minutes after the administration of 100 mg/kg of the sample compound was collectively studied and, with reference to the positive control, classified into 5 levels as follows:
5: Same as the control with no recognizable damage at all.
3: Though a weak decrease in PD and a possibility of a weak mucosal damage is recognized, there is no substantial problem.
2: Medium degree of decrease in PD is found and a mucosal damage is recognized.
1: Heavy degree of decrease in PD is found and a remarkable mucosal damage is recognized.

[1] = test system: isolated gastric fundic gland; experiment: CAP: Acid Secretion Inhibition Test In Vitro ([14C]-aminopyrine uptake); format: cell-based, rabbit (male Japanese White); conditions: Oryctolagus cuniculus, 40 min; 10^-5 M compound, 10^-5 M histamine, rabbit isolated gastric fundic gland, 37° C., 40 minutes; read-out: CAP: acid secretion inhibitory rate
Description: With respect to the gastric juice volume (VOL) and the total acid output (TAO), the effects obtained when 100 mg/kg of the sample compound had been administered were expressed as their respective inhibitory rates (%) as follows: [formula] CAP: Acid Secretion Inhibition Test In Vitro i) Meaning
The acid secretion inhibitory activity in a cell level is studied. It can also be used for studying the mechanism of the effect.
ii-a) Preparation of isolated gastric fundus gland suspension
First, an isolated gastric fundic gland sample was prepared. […] Immediately thereafter, the stomach was removed and, after its pyloric and cardiac antrum were severed, incised along its greater curvature into two sheets. The gastric contents adhering to the mucosal surface was washed out with ice-cooled PBS (-) and then carefully washed therein. The gastric wall was spread on a cork board with its mucosal surface facing up and the feed and mucus thereon were completely removed with sterile gauze. The mucosa was separated therefrom by a spatula and then collected in ice-cooled PBS (-). After being washed twice with PBS (-), the mucosa was minced into 2-3 mm^3 pieces by scissors. These pieces were further washed twice with a nutrient solution. The nutrient solution comprises 132.4 mM of NaCl, 5.4 mM of KCl, 5 mM of Na2 HPO4.12H2 O, 1 mM of NaH2 PO4.2H2 O, 1.2 mM of MgSO4, 1 mM of CaCl2, 25 mM of HEPES, 2 mg/ml of glucose, and 1 mg/ml of BSA. Into 70 ml of the nutrient solution containing 1 mg/ml of collagenase, minced mucosal pieces were dispersed and intensely stirred in a conical flask with a stirrer at 37° C. for 40 to 60 minutes. During this period, 100% O2 was sprayed on the nutrient solution surface and the pH was appropriately measured such that it was immediately adjusted to pH 7.4, when the value was therebelow, with a base. The nutrient solution was added to the reaction solution so as to attain the total amount of about 200 ml. After being filtered through a mesh, the suspension was divisionally introduced into 50 ml centrifuge tubes and left for 15 minutes such that gastric fundic gland was deposited. The supernatant was repeatedly removed by an aspirator, dispersed in the nutrient solution, and then left such that the gastric fundic gland was washed three times. At this time, without using a pipette, the suspension was alternately introduced into two centrifuge tubes so as to effect dispersion. The number of cells was counted under microscope and adjusted to 1.6×10^6 cells/ml.
ii-b) [^14 C]-aminopyrine uptake test
Then, [^14 C]-aminopyrine uptake test was performed. After an Eppendorf tube was weighed, 10 μl (final concentration: 10^-5 M) of histamine dissolved in the above-mentioned nutrient solution, 10 μl (final concentration: 10^-5 M) of the test compound dissolved in DMSO, and 10 μl (final concentration: 0.05 μCi/ml) of [^14 C]-aminopyrine diluted with the nutrient solution were introduced therein and then 970 μl of the isolated gastric fundic gland suspension prepared above was added thereto. Subsequently, this mixture was shaken at 37° C. for 40 minutes at 125 cycles/minute. After being centrifuged for 30 minutes, 200 μl of its supernatant was collected into a mini-vial, while the rest was removed by an aspirator. The gland pellet was completely dried as the tube with its lid being opened was kept for one night in a drying oven at 80° C. and then the lid was closed and the weight was determined at room temperature. Then 100 μl of 1N KOH was added thereto and the tube with its lid being closed was treated at 60° C. for 1 to 2 hours so as to dissolve the pellet. Then, the contents thereof were transferred to a mini-vial. Into the mini-vial containing the supernatant or gland pellet, 4 ml of Atomlite™ was added and then the radioactivity was measured by a liquid scintillation counter. […]

Structure (SMILES)	WIS: ulcer formation inhibitory rate (stress ulcer)	AT: toxicity at single dose, 5 levels (Male Slc:ICR mice)	cytotoxicity at 4 h, 100 µM (in vitro)	PD: change in gastric mucosal potential difference, 5 levels (gastric mucosa)	inhibition at 10 µM [1]	effect (anti-ulcer tests) (stress ulcer; result in words, comparison of examples within compound group 1-1)	anti-ulcer effect (stress ulcer; result in words)
COc1ccc(C(=O)NCCN2CCCCC2)cc1OC/C=C(\C)CCC=C(C)C [Example 23]	56%	3	43%				
COc1ccc(OC/C=C(\C)CCC=C(C)C)c(C(=O)NCCN2CCCCC2)c1 [Example 20]	71%	3	35%				
COc1cc(C(=O)NCCN2CCCCC2)cc(OC)c1OCC=C(C)C [Example 27]	82%		-11%	5			
CC(C)=CCC/C(C)=C/COc1ccc(C(=O)NCCN2CCCCC2)cc1OC/C=C(\C)CCC=C(C)C [Example 11]	91%	4	23%	5			
CC(C)=CCC/C(C)=C/COc1cc(OC/C=C(\C)CCC=C(C)C)cc(C(=O)NCCN2CCCCC2)c1 [Example 14]	66%	3	26%				
COc1cc(C(=O)NCCN2CCCCC2)ccc1OC/C=C(\C)CCC=C(C)C [Example 25]	44%	3	48%				
CC(C)=CCOc1ccc(OCC=C(C)C)c(C(=O)NCCN2CCCCC2)c1 [Example 17]	70%	3	-16%		100%		
CC(C)=CCC/C(C)=C/COc1ccc(F)cc1C(=O)NCCN1CCCCC1 [Example 6]	80%	3	16%			the effect has been maintained	
COc1cc(C(=O)NCCN2CCOCC2)cc(OC/C=C(\C)CCC=C(C)C)c1OC [Example 44]	61%	4	22%		100%		
COc1cc(C(=O)NCCN2CCOCC2)cc(OC)c1OC/C=C(/C)CCC=C(C)C [Example 43]	41%	4	10%	5			
CC(C)=CCC/C(C)=C/COc1ccc(OC/C=C(\C)CCC=C(C)C)c(C(=O)NCCN2CCCCC2)c1 [Example 13]	67%	5	-5%		100%		
COc1cc(C(=O)NCCN2CCCCC2)cc(OC/C=C(\C)CCC=C(C)C)c1OC [Example 24]	72%	5	30%				more anti-ulcer effect
CC(C)=CCOc1cc(C(=O)NCCN2CCCCC2)cc(OCC=C(C)C)c1OCC=C(C)C [Example 19]	57%	4					
COc1cc(C(=O)NCCN2CCOCC2)cc(OC)c1OC/C=C(\C)CCC=C(C)C [Example 42]	69%	4	0%		102%		
CC(C)=CCOc1cc(C(=O)NCCN2CCOCC2)cc(OCC=C(C)C)c1OCC=C(C)C [Example 39]	76%	4					
CC(C)=CCC/C(C)=C/CC/C(C)=C/COc1ccc(C(=O)NCCN2CCOCC2)cc1 [Example 32]	55%	5	58%		99%		
CC(C)=CCC/C(C)=C/COc1cccc(C(=O)NCCN2CCOCC2)c1 [Example 29]	63%	5	16%		99%		
